The text below walks through data of patent US20240398727A1, “(S)-5-(1-(3,5-BIS(TRIFLUOROMETHYL)PHENOXY)ETHYL)CYCLOHEXANE-1,3-DIONE (NU-9) IMPROVES THE HEALTH OF DISEASED UPPER MOTOR NEURONS” (Northwestern University, priority 2021, published 2024).

Data set [1] concerns misfolded SOD1 (mSOD1) mouse model. Particulars: literature (Snow 2003, Scott 2008); cited from earlier work.
Data set [2] can be described thus: Plasma, brain and CNS concentrations after repeated oral dosing. The following applies: mice, 100 mg/kg/day via daily gavage.
For data set [3] the following is noted: male, BALB/c, mouse, in vivo, po.
Data set [4] deals with UMNs of hSOD1^G93A-UeGFP mice. The data set is described as follows: Axon outgrowth of UMNs diseased by mSOD1 toxicity in dissociated motor cortex culture. Particulars: 3 days in vitro; for average length of UMN axons: SFM control 227.62±19.63 μm, WT 321.41±17.54 μm. The class given is cell-based, mouse. An excerpt: (§1) Mice. All animal procedures were approved by the Northwestern University Animal Care and Use committee and comply with the standards of the National Institutes of Health. All mice were on C57BL/6 background. Transgenic hemizygous males expressing a high copy number of the human SOD1 gene with a G93A mutation (B6SJL-Tg (SOD1*G93A)1Gur/J; The Jackson Laboratory) were bred to hemizygous UCHL1-eGFP females to generate hSOD1^G93A-UeGFP and WT-UeGFP (control) mice. UCHL1-eGFP mice were generated in the Ozdinler Lab; they are reporter lines for UMNs (Yasvoina, Genc et al. 2013), and are now available at Jackson Laboratory (stock no. 022476). Hemizygous UCHL1-eGFP females were bred to hemizygous prpTDP-43^A315T mice (procured from Jackson Laboratory, stock no. 010700) to generate prpTDP-43^A315T-UeGFP mice. prpTDP-43^A315T mice were supplied with gel diet (DietGel 76A, ClearH2O, ME, USA) to eliminate gastrointestinal (GI) complications. Transgenic mice were identified by PCR amplification of DNA extracted from their tail, as previously described (Gurney, Pu et al. 1994, Wegorzewska, Bell et al. 2009, Yasvoina, Genc et al. 2013, Gautam, Jara et al. 2019). Mice with different genotypes are abbreviated in the figures as follows: WT-UeGFP (control) mice=G mice; hSOD1^G93A-UeGFP mice=GS mice; prpTDP-43^A315T-UeGFP mice=GTDP mice.
(§2) Compound preparation and delivery. NU-9 was prepared as 100 μM stock in dimethylsulfoxide (DMSO) and added to serum free medium (SFM) at a final concentration of 400 nM (4 μl per 1 ml SFM). […] Edaravone (Sigma-Aldrich) was prepared as 1 mM stock in DMSO and added at a final concentration of 1 μM in SFM (1 μl per 1 ml SFM). Amylyx AMX-0035 compound was a combination of 1 mM of 4-Phenylbutyric acid (4-PBA, Sigma Aldrich)+100 μM Tauroursodeoxycholic Acid, Sodium Salt (TUDCA, Millipore Sigma) added into SFM (4-PBA was prepared as a 21.5 mM stock in water and added at 46.5 μl per 1 ml SFM, TUDCA was prepared as 20 mM stock in water, and added at 5 μl per 1 ml SFM).
(§3) UMN Cultures. P3 motor cortices isolated from WT-UeGFP, hSOD1^G93A-UeGFP, and prpTDP-43^A315T-UeGFP mice were dissected, dissociated, and cultured on glass coverslips (4×10^4 cells per 18 mm diameter coverslip, Fisherbrand) coated with poly-L-lysine (10 mg/mL, Sigma) as previously described (Ozdinler and Macklis 2006). […]
(§4) UMNs were quantitatively analyzed for differences in neurite length and arborization complexity. Images taken with a 20× objective on the epifluorescent microscope (Nikon) were analyzed using the Neurite Tracer plugin from FIJI (NIH), which enables semi-autonomous tracing to measure the length of the axon. […]

Data set [5] concerns UMNs of hSOD1^G93A-UeGFP mice. The data set is described as follows: Sholl analysis of arborization and branching, UMNs diseased by mSOD1 toxicity. The class given is cell-based, mouse. Particulars: 3 days in culture, data not shown. As to the method:
(§5) UMN Cultures. P3 motor cortices isolated from WT-UeGFP, hSOD1^G93A-UeGFP, and prpTDP-43^A315T-UeGFP mice were dissected, dissociated, and cultured on glass coverslips (4×10^4 cells per 18 mm diameter coverslip, Fisherbrand) coated with poly-L-lysine (10 mg/mL, Sigma) as previously described (Ozdinler and Macklis 2006). Neurons were cultured in SFM [0.034 mg/L BSA, 1 mM L-glutamine, 25 U/mL penicillin, 0.025 mg/mL streptomycin, 35 mM glucose, and 0.5% B27 in Neurobasal-A medium (Life Technologies)] in a humidified tissue culture incubator in the presence of 5% CO2 at 37° C. […] Cultures were fixed after 3 days in vitro (DIV).
(§6) UMNs were quantitatively analyzed for differences in neurite length and arborization complexity. Images taken with a 20× objective on the epifluorescent microscope (Nikon) were analyzed using the Neurite Tracer plugin from FIJI (NIH), which enables semi-autonomous tracing to measure the length of the axon. The aggregation of the neurite tracings centered at the soma generates a profile available for Sholl analysis.

The subject of another data set is male BALB/c mice. Particulars: mouse, in vivo, po, 100 mg/kg/day.
The subject of data set [6] is UMNs from prpTDP-43^A315T-UeGFP mice. The data set is described as follows: Sholl analysis of arborization and branching, UMNs with TDP-43 pathology. The class given is cell-based, mouse. The following applies: prpTDP-43^A315T-UeGFP UMNs; data not shown. The protocol:
as §5, §6
Statistical analysis. All analyses were performed using Prism software (GraphPad Software). The D'Agostino and Pearson normality test was performed on all datasets. Statistical differences between more than two groups were determined by one-way ANOVA followed by the Tukey's post-hoc multiple-comparison test. […]

Another data set in a line: in vivo. The following applies: BALB/c, mouse, 100 mg/kg/day.
Data set [7] deals with UMNs from prpTDP-43^A315T-UeGFP mice. In kind it is cell-based. The following applies: prpTDP-43^A315T-UeGFP UMNs, 3 days in vitro; for average length of the axons of UMNs: SFM control 199.52±21.15 μm, WT 321.41±17.54 μm.
Text: as §1, §2, §3, §4

The conditions of data set [8]: literature value; cited from earlier work.
Where [9] appears, read: NU-9 400 nM, riluzole 500 nM, edaravone 1 μM.
Where [10] appears, read: riluzole 500 nM, edaravone 1 μM.

The structures appear in SMILES notation.

Experimental for male BALB/c mice: Repeated dose toxicity study was performed at Laboratory Animal House (LAH), Toxicology, Sai Life Science Ltd., Chrysalis Enclave, Phase II, Hinjewadi, Pune-411 057, Maharashtra, India.

As to `Nc1nc2ccc(OC(F)(F)F)cc2s1` [riluzole, 2-Amino-6-(trifluoromethoxy)benzothiazole], the “longevity of the mSOD1 mouse model” value in data set [1] is “failed to improve the longevity”.

As usually defined, the Tmax is the time at which the peak concentration occurs. Consider `C[C@H](Oc1cc(C(F)(F)F)cc(C(F)(F)F)c1)C1CC(=O)CC(=O)C1` [NU-9, (S)-5-(1-(3,5-bis(trifluoromethyl)phenoxy)ethyl)cyclohexane-1,3-dione], for which the “dose (concentration) detected in CNS” value in data set [2] is on record as 400 nM. For the same molecule, in data set [3], the “time till which plasma concentrations were quantifiable” value is on record as “up to 24 h” and the “time up to which brain concentrations were quantifiable” value is on record as “up to 24 h”. Besides, the “percent of UMNs with an axon within the range of 300-399 μm” value in data set [4] (NU-9 400 nM) is reported as “about 44.4%”. The “average length of UMN axons” value in data set [4] (setting [9]) stood at 346.76±12.32 μm. Besides, in data set [5], the “UMN arborization (Sholl measurements)” value was “more complex and arborized UMNs”. Also, the mortality result in the data set with male BALB/c mice is on record as “did not result in mortality”. In data set [6], the “neuronal arborization and branching (Sholl analyses)” value was “enhanced neuronal arborization and branching”. The molecule also displayed a concentration at 7 day in the data set “in vivo” (CNS, oral) of 400 nM. The Tmax in the data set “in vivo” (male, plasma, po) was 30 min. The “percentage of UMNs with axons longer than 300 μm” value in data set [7] (NU-9 400 nM, vehicle 26%) worked out at 88%. In addition, in data set [7] (setting [9]), the “average length of the axons of UMNs” value is on record as 397.73±14.09 μm.

With `CC1=NN(c2ccccc2)C(=O)C1` [edaravone, 2,4-Dihydro-5-methyl-2-phenyl-3H-pyrazol-3-one, reference compound], the “average length of UMN axons” value in data set [4] (setting [9]) was found to be 289.58±22.71 μm. The “overall axon outgrowth (distribution of longest axons)” value in [4] (setting [10]) is “improved overall axon outgrowth”. Moreover, the “UMN arborization (Sholl measurements)” value in data set [5] is given as “improved UMN arborization, but to a lesser extent”. Also, the “average length of the axons of UMNs” value in data set [7] (setting [9]) is 282.57±32.39 μm. Moreover, in data set [7] (setting [10]), the “percentage of UMNs with axons in the range of 200-399 μm” value is on record as 62%. In addition, the “concentration reported to be present in the CNS after the optimum dose used in clinical trials” value in [8] is 1000 nM.
